Experimental data as given in PMC5990611, “An in Vitro Assay of hERG K^+ Channel Potency for a New EGFR Inhibitor FHND004” (Frontiers in Pharmacology, 2018).

Assay: In vivo pharmacokinetic assay in male SD rats
Conditions: rat, serum, data not shown, read-out: maximum serum concentration (Cmax)

## C=CC(=O)Nc1cc(Nc2nccc(-c3cn(C)c4ccccc34)n2)c(OC)cc1N(C)CCN(C)C [AZD9291]
  Cmax: 220 nM
